Test results from article PMC11275179, “Superior Anticancer and Antifungal Activities of New Sulfanyl-Substituted Niclosamide Derivatives” (Biomedicines, 2024).
Values after ≈ are worked out from the molar mass of the structure shown. Read-outs that look alike come from different tables or passages of the source.

Legend:
FLO-1 EAC cells = assay: MTT proliferation assay, FLO-1 cells; format: cell-based; settings: 72 h, read-out: Antiproliferative activity IC50, FLO-1
Description: (§1) The FLO-1, SK-GT-4, and THP-1 cell lines were a gift from Dr. Shrikant Anant’s laboratory. Cells were grown in 10% fetal bovine serum (Fisher Scientific#FB12999102, Pittsburgh, PA, USA) and 1% antibiotic/antimycotic agent (Corning, Tewksbury, MA, USA) in RPMI 1640 media mixed with […] HEPES, L-glutamine (Corning, MA, USA). The cell lines were grown in a 5% CO2 incubator at 37 °C and used below 15 passages for the experiments.
(§2) The proliferation assay used a 3-(4,5-dimethylthiazol-2-yl)-2,5-diphenyltetrazolium bromide (MTT) assay. Briefly, 5000 FLO-1 and SK-GT-4 cells were counted and seeded in each well in 96-well plates. Post 24 h of incubation, EAC cells were treated with multiple concentrations (0–10 μM) of niclosamide (Cayman chemical#10649, Ann Arbor, MI, USA) and its analogs. At respective time points, 10 μL of stock MTT reagent (Millipore Sigma, Bedford, MA, USA) (3 mg/mL) was added to each well and incubated for 1–2 h under the dark at 37 °C. After incubation, the purple formazan crystals were dissolved in equal volumes of DMSO, and the absorbance of the resulting clear solutions was recorded at 570 nm using a microplate reader. A CCK-8 (Abcam, Cat no. ab228554, Burlingame, CA, USA) assay was used for the THP-1 cells. Briefly, 5000 cells were plated in every well of a 96-well plate. After 24 h of plating, THP-1 cells were treated with niclosamide and compound 3a. After the respective time point, an equal amount of CCK-8 reagent was pipetted to the wells and incubated for one hour in an incubator, and finally, the absorbance was recorded at 450 nm. The percent change in the proliferation was calculated by comparing the cell viability of the treated groups to the untreated control cells.

SK-GT-4 EAC cells = assay: MTT proliferation assay, SK-GT-4 cells; format: cell-based; settings: 72 h, read-out: Antiproliferative activity IC50, SK-GT-4
Description: as §1, §2

[1] = test system: M. mycetomatis MM55 strain; assay: In vitro susceptibility testing (MTS), MM55 strain; format: cell-based, Madurella mycetomatis
Description: (§3) The antifungal activity of the compounds was tested against a geographically and genetically diverse set of M. mycetomatis isolates. These included the MM55 strain from Sudan, strains I1, I3, and […] from India, strain P1 from Mali, strain SO1 from Somalia, strain Peru72012 from Peru, and strain CBS247.48 whose country of origin was unknown. All isolates were originally obtained from patients and identified and maintained in the Erasmus Medical Centre, Rotterdam, The Netherlands. In vitro susceptibility testing was performed as reported previously. The only difference was that tetrazolium compound 3-(4,5-dimethylthiazol-2-yl)-5-(3-carboxymethoxyphenyl)-2-(4-sulfophenyl)-2H-tetrazolium salt (MTS) was used as a viability dye in endpoint reading instead of 2,3-bis-(2-methoxy-4-nitro-5-sulfophenyl)-2H-tetrazolium-5-carboxanilide salt (XTT).

M. mycetomatis strains = assay: In vitro susceptibility testing (MIC), panel of eight strains; format: cell-based, Madurella mycetomatis; settings: Madurella mycetomatis
Description: as §3

[2] = test system: Galleria mellonella larvae; assay: Toxicity in healthy Galleria mellonella larvae; format: in vivo; settings: 20 µM, 10 days
Description: (§4) In vivo efficacy was determined in larvae of the greater wax moth Galleria mellonella. Since G. mellonella is an invertebrate, it is not subject to directive 2010/63/EU of the European law on animal testing. Larvae were housed in the dark in Petri dishes with Whatman paper. To determine the toxicity in G. mellonella larvae, test compounds were injected on three consecutive days at 24 h intervals in the last pro-leg of healthy larvae followed by monitoring of the survival for ten days. If no significant difference between the control and treated larvae was observed, the compound was considered nontoxic. Larvae were further used in infection studies to determine the in vivo activity of test compounds against M. mycetomatis according to our previously published protocol.

Kinetic solubility = format: physicochemical; settings: aqueous buffer, 24 h
Description: Kinetic solubility was tested using 10 mM stock solutions of test compounds in DMSO followed by dilution with an aqueous buffer to a final concentration of 250 µM and vortexed at 900 rpm for 24 h. Then, the samples were filtered and analyzed by UHPLC (Shimadzu Nexera X2, Milton Keynes, UK).

HepG2 hepatoma cells = assay: HepG2 hepatotoxicity, resazurin assay; format: cell-based; settings: 72 h, two independent experiments
Description: (§5) HepG2 hepatoma cells were used for hepatotoxicity studies. Cells were provided by ECACC with a certificate of analysis confirming STR profiling and were mycoplasma tested every time new stabilates were made. Cells were screened utilizing a resazurin-based fluorescence assay (λex = 540 nm, λem = 590 nm) in a 384-well plate format. HepG2 cells (1 × 10^5 cells/mL) were incubated with the compound in a 10-point, 1 in 3 dilution series from a top concentration of 100 µM, for 72 h. After the 72 h incubation period, resazurin (0.27 mM in a cell culture medium) was added and the plates were incubated for a further 3–4 h before the fluorescent signal was measured using PHERAstar (BMG Labtech, Ortenberg, Germany). IC50 values were calculated from two independent experiments.

[3] = HepG2 hepatotoxicity, resazurin assay; format: cell-based; settings: human, HepG2 hepatoma cells, two independent experiments
Description: as §5

[4] = test system: M. mycetomatis MM55 strain; assay: In vivo activity in M. mycetomatis-infected G. mellonella larvae; design: species or system Galleria mellonella; d10 AUC / d10 ΔAUC: unit not given here; settings: 20 µM
Description: as §4

CHI logD = format: physicochemical; settings: reversed-phase UHPLC
Description: CHI (chromatographic hydrophobicity index) logD was determined according to previously published methods. Test compounds were prepared as 0.5 mM solutions in 50:50 acetonitrile/water and analyzed by reversed-phase UHPLC (wavelength 254 nm). By plotting the retention time of a set of reference compounds against known CHI values, the CHI value of test compounds was calculated according to their retention time, and this was then further converted to CHI logD.

Microsomal clearance = format: in vitro ADME
Description: Liver microsomes were applied to study the microsomal clearance of test compounds. The test compound (0.5 µM) was incubated with female CD1 mouse liver microsomes (0.5 mg/mL, 50 mM potassium phosphate buffer, pH 7.4), and the reaction started with the addition of excess NADPH (8 mg/mL, 50 mM potassium phosphate buffer, and pH 7.4). Immediately, at time 0, then at 3, 6, 9, 15, and 30 min, an aliquot of the incubation mixture was removed and mixed with acetonitrile to stop the reaction. An internal standard (IS) was added to all samples, the samples were centrifuged to sediment precipitated protein, and the plates were then sealed prior to UPLC-MSMS analysis (Xevo TQ-S Micro, Waters^TM, Milford, MA, USA). An exponential decay fit was created from the response ratio (compound peak area/IS peak area) and incubation time, and subsequently, Clint (mL/min/mg protein) was calculated by multiplying the rate constant (k) of the exponential decay curve and incubation conditions (incubation volume/mg protein added).

[5] = test system: M. mycetomatis SO1 isolate; design: method as in PMID 34209118; settings: read-out: IC50 against the Somalian SO1 isolate; cited from earlier work

Work on `N.N.[Cl][Pt][Cl]` [Cisplatin, reference compound] yielded an IC50 (FLO-1 EAC cells) of 1.7 ± 1.48 µM and an IC50 (SK-GT-4 EAC cells) of 2.28 ± 0.14 µM.

For `O=C(Nc1ccc(SC(F)(F)F)cc1)c1cc(Cl)ccc1O` [Compound 2b, 5-Chloro-2-hydroxy-N-(4-trifluoromethylsulfanylphenyl)benzamide], the IC50 ([1]; read-out: Antifungal activity IC50) was 0.2 ± 0.1 µM, the IC90 ([1]; read-out: Antifungal activity IC90) was 0.5 ± 0.6 µM and the IC50 (FLO-1 EAC cells) was 2.2 ± 0.36 µM. It also gave an MIC (M. mycetomatis strains; CBS247, strain CBS247.48, read-out: MIC, CBS247.48) of 0.5 µM (≈ 0.174 µg/mL), an MIC (M. mycetomatis strains; strain I1, read-out: MIC, I1) of 0.5 µM (≈ 0.174 µg/mL) and an MIC (M. mycetomatis strains; strain I3, read-out: MIC, I3) of 0.5 µM (≈ 0.174 µg/mL). It also gave an MIC (M. mycetomatis strains; strain I11, read-out: MIC, I11) of 0.5 µM (≈ 0.174 µg/mL), an MIC (M. mycetomatis strains; strain MM55, read-out: MIC, MM55) of 0.5 µM (≈ 0.174 µg/mL) and an MIC (M. mycetomatis strains; strain P1, read-out: MIC, P1) of 0.3 µM (≈ 0.104 µg/mL). It also gave an MIC (M. mycetomatis strains; strain Peru72012, read-out: MIC, Peru72012) of 0.3 µM (≈ 0.104 µg/mL), an MIC (M. mycetomatis strains; strain SO1, read-out: MIC, SO1) of 0.5 µM (≈ 0.174 µg/mL) and an MIC50 (M. mycetomatis strains; concentration at which 50% of the eight isolates were completely inhibited) of 0.5 µM (≈ 0.174 µg/mL). The “Toxicity to non-infected G. mellonella larvae” value [2] was “not toxic”, the Kinetic solubility (Kinetic solubility) was “stability issues” and the IC50 (HepG2 hepatoma cells) was 2.99 ± 0.11 µM. For the same compound, the IC50 at 72 h [3] was 2.3 to 3 µM, the IC50 (SK-GT-4 EAC cells) was 2.02 ± 0.14 µM and the melting point was 200 to 201 °C. The “d10 AUC” value ([4]; area under the survival curve) was 451.7, the “Effect on survival between days three and six” value ([4]; infected larvae) was “considerable temporary effect” and the “d10 Survival” value ([4]; infected larvae, day 10) was “no increased survival”. For the same compound, the “d10 Survival Corrected with Control” value ([4]; infected larvae, day 10) was −3.33%, the “d10 ΔAUC” value ([4]; versus control) was 120 and the chromatographic logD (CHI logD) was 4.3. For the same compound, the half-life at 0.5 µM (Microsomal clearance; female, CD1, pH 7.4, mouse liver microsomes, read-out: Microsomal T ½) was 6.66 min and the “Microsomal Clearance” value (Microsomal clearance; mouse liver microsomes, 0.5 µM) was 0.21 mL/min/mg Protein.

For `O=C(Nc1cccc(C(F)(F)F)c1)c1cc(Cl)ccc1O` [MMV665807], the IC50 [5] is listed as 9.93 µM.
